Data from patent US20210380595A1 (ARAXES PHARMA LLC, priority 2018, published 2021).

Target: T1, KRAS G12C 1-169, his-tagged protein, GDP-loaded (Homo sapiens, UniProt P01116, G12C)
T1 construct: KRAS G12C 1-169, his-tagged protein, GDP-loaded
Assay: Biochemical assay: covalent modification of KRAS G12C measured by mass spectrometry (RapidFire/TOF or Q-Exactive)
Assay type: binding
Experimental: Test compounds were prepared as 10 mM stock solutions in DMSO (Fisher cat. #BP-231-100). KRAS G12C 1-169, his-tagged protein, GDP-loaded is diluted to 2 μM or 0.5 μM in buffer (20 mM Hepes, 150 mM NaCl, 1 mM MgCl2). Compounds were tested for activity as follows:
Compounds were diluted to 50× final test concentration in DMSO in 96-well storage plates. Compound stock solutions were vortexed before use and observed cwerefully for any sign of precipitation. Dilutions were as follow: • For 32 μM final compound concentration, compounds were diluted to 1600 μM (3 μL 10 mM compound stock +15.75 μL DMSO and mixed well by pipetting. • For 8 μM final compound concentration, compounds were diluted to 400 μM (2 μL 10 mM compound stock +48 μL DMSO) and mixed well by pipetting. 49 μL of the stock protein solution was added to each well of a 96-well PCR plate (Fisher cat#1423027). 1 μl of the diluted 50× compounds were added to appropriate wells in the PCR plate using 12-channel pipettor. Reactions were mixed carefully and thoroughly by pipetting up/down with a 200 μL multi-channel pipettor. The plate was sealed well with aluminum plate seal, and protein and compound were allowed to react for a desired amount of time. 5 μL of 2% formic acid (Fisher cat#A117) in de-ionized H2O was then added to each well followed by mixing with a pipette to quench the reaction. The plate was then resealed with aluminum seal and stored frozen on dry ice until analyzed as described below.
The above described assays were analyzed by mass spectrometry according to one of the following two procedures:
The MS instrument was set to positive polarity, 2 GHz resolution, and low mass (1700) mode and allowed to equilibrate for 30 minutes. The instrument was then calibrated, switched to acquisition mode and the appropriate method loaded.
After another 30 minute equilibration time, a blank batch (i.e., buffer) was run to ensure equipment is operating properly. The samples were thawed at 37° C. for 10 minutes, briefly centrifuged, and transfered to the bench top. Wells A1 and H12 were spiked with 1 μL 500 μM internal standard peptide, and the plates centrifuged at 2000×g for 5 minutes. The method was then run and masses of each individual well recorded.
The masses (for which integration data is desired) for each well were pasted into the platemap and exported from the analysis. Masses for the internal standards were exported as well. The data at 50 ppm was extracted for the +19 charge state, and identity of well A1 was assigned using the internal standard spike and integrated. Peak data was exported as a TOF list and the above steps were repeated individually, for the +20, +21, +22, +23, +24, and +25 charge states.
The masses and peak intensities of KRAS G12C protein species were measured using a Dionex RSLCnano system (Thermo Scientific) connected to a Q Exactive Plus mass spectrometer (Thermo Scientific).
20 μL of sample was loaded onto a Aeris™ 3.6 μm WIDEPORE C4 200 Å, LC Column 50×2.1 mm column maintained at 40° C. at a flow rate of 600 μL/min with 80% Solvent A (0.1% formic acid in H2O) and 20% Solvent B (0.1% formic acid in acetonitrile). The liquid chromatography conditions were 20% solvent B for 1 minute, 20% to 60% solvent B for 1.5 minutes, 60% to 90% solvent for 0.5 minute, 90% solvent B for 0.2 minute, 90% to 20% solvent B for 0.2 minute, and then equilibrated for 1.6 minute before the following sample injection. The flow rate was maintained at 600 μL/min throughout the sample analysis.
The mass spectrometer was operated in profile mode at a resolution of 17500, 5 microscans, using 50 msec max injection time and an AGC target of 1×10^6, and a full mass range from 800-1850 m/z was recorded. The intact protein mode was applied for optimal ion transfer and maximum sensitivity. The ionization method was electrospray ionization, which used a spray voltage of 4 kV, sheath gas flow set to 50 AU, auxiliary gas flow set to 10 AU and sweep gas flow set to 1 AU. […]

| Compound | Bind % (tested at 32 μM) | Bind % (tested at a concentration of 8 μM) |
| --- | --- | --- |
| C=CC(=O)N1CC2(CCN(c3ccc(C(F)(F)F)c(-c4c(C)ccc5[nH]ncc45)c3C#N)CC2)C1 [Compound I-112, 6-(2-acryloyl-2,7-diazaspiro[3.5]nonan-7-yl)-2-(5-methyl-1H-indazol-4-yl)-3-(trifluoromethyl) benzonitrile] | + (+ indicates binding activity greater than 0% and up to 50%) | – |
| C=CC(=O)N1CC2(CCN(c3ccc(Cl)c(-c4c(C)ccc5[nH]ncc45)c3C#N)C2)C1 [Compound I-98, 6-(2-acryloyl-2,6-diazaspiro[3.4]octan-6-yl)-3-chloro-2-(5-methyl-1H-indazol-4-yl)benzonitrile] | – | ++ (++ indicates binding activity from 50 to 75%) |
| C=CC(=O)N1CC2(CCN(c3cc(OC)cc(-c4c(C)ccc5[nH]ncc45)c3C#N)C2)C1 [Compound I-14, 2-(2-acryloyl-2,6-diazaspiro[3.4]octan-6-yl)-4-methoxy-6-(5-methyl-1H-indazol-4-yl)benzonitrile] | +++ (+++ indicates binding activity greater than 75%) | – |
| C=CC(=O)N1CC2(CCN(c3cc(N4CCC(N(C)C)CC4)cc(-c4c(C)ccc5[nH]ncc45)c3C#N)C2)C1 [Compound I-24, 2-(2-acryloyl-2,6-diazaspiro[3.4]octan-6-yl)-4-(4-(dimethylamino)piperidin-1-yl)-6-(5-methyl-1H-indazol-4-yl)benzonitrile] | +++ (+++ indicates binding activity greater than 75%) | – |
| C=CC(=O)N1CC2(CCN(c3cc(N4CCC(O)CC4)cc(-c4c(C)ccc5[nH]ncc45)c3C#N)CC2)C1 [Compound I-81, 2-(2-acryloyl-2,7-diazaspiro[3.5]nonan-7-yl)-4-(4-hydroxypiperidin-1-yl)-6-(5-methyl-1H-indazol-4-yl)benzonitrile] | + (+ indicates binding activity greater than 0% and up to 50%) | – |
| C=CC(=O)N1CC2(CCN(c3ccc(F)c(-c4c(C)ccc5[nH]ncc45)c3C#N)CC2)C1 (atropisomer, axis not shown) [Compound I-141, (S)-6-(2-acryloyl-2,7-diazaspiro[3.5]nonan-7-yl)-3-fluoro-2-(5-methyl-1H-indazol-4-yl)benzonitrile] | + (+ indicates binding activity greater than 0% and up to 50%) | – |
| C=CC(=O)N1CCC2(C1)CN(c1cccc(-c3c(C)ccc4[nH]ncc34)c1C#N)C2 [Compound I-9, 2-(6-acryloyl-2,6-diazaspiro[3.4]octan-2-yl)-6-(5-methyl-1H-indazol-4-yl)benzonitrile] | + (+ indicates binding activity greater than 0% and up to 50%) | – |
| CC#CC(=O)N1CCC2(CCN(c3cc(OCc4ccccn4)cc(-c4c(C)ccc5[nH]ncc45)c3C#N)CC2)C1 [Compound I-53, 2-(2-(but-2-ynoyl)-2,8-diazaspiro[4.5]decan-8-yl)-6-(5-methyl-1H-indazol-4-yl)-4-(pyridin-2-ylmethoxy) benzonitrile] | + (+ indicates binding activity greater than 0% and up to 50%) | – |
| C=CC(=O)N1CCC2(C1)CN(c1cc(OCc3ccccn3)cc(-c3c(C)ccc4[nH]ncc34)c1C#N)C2 [Compound I-48, 2-(6-acryloyl-2,6-diazaspiro[3.4]octan-2-yl)-6-(5-methyl-1H-indazol-4-yl)-4-(pyridin-2-ylmethoxy) benzonitrile] | + (+ indicates binding activity greater than 0% and up to 50%) | – |
| Cc1ccc2[nH]ncc2c1-c1cccc(N2CCC3(CN(C(=O)/C=C/CN(C)C)C3)C2)c1C#N [Compound I-36, (E)-2-(2-(4-(dimethylamino)but-2-enoyl)-2,6-diazaspiro[3.4]octan-6-yl)-6-(5-methyl-1H-indazol-4-yl)benzonitrile] | + (+ indicates binding activity greater than 0% and up to 50%) | – |
| CC#CC(=O)N1CCC2(CCN(c3cc(OCc4ccccn4)cc(-c4c(C)ccc5[nH]ncc45)c3C#N)C2)C1 (centres unmarked) [Compound I-56, 2-(7-(but-2-ynoyl)-2,7-diazaspiro[4.4]nonan-2-yl)-6-(5-methyl-1H-indazol-4-yl)-4-(pyridin-2-ylmethoxy) benzonitrile] | + (+ indicates binding activity greater than 0% and up to 50%) | – |
